From patent US7863449B2, “Modulators of muscarinic receptors” (Vertex Pharmaceuticals Incorporated, priority 2004, dated 2011)
Counter-ions that a name gives are not always drawn.

What was measured:
[1] = target: T1, M1 muscarinic receptor (Homo sapiens, UniProt P11229); assay: Functional mobilization of intracellular calcium (FLIPR), M1-CHO cells; format: cell-based; conditions: for Emax: 100% efficacy is the maximum response obtained using Carbachol as a control; for M1 Activity: M1-CHO cells, FLIPR calcium mobilization
T1 construct: expressed in transfected cells; host or cells: CHO (M1-CHO)
T1 sequence (P11229 1-460): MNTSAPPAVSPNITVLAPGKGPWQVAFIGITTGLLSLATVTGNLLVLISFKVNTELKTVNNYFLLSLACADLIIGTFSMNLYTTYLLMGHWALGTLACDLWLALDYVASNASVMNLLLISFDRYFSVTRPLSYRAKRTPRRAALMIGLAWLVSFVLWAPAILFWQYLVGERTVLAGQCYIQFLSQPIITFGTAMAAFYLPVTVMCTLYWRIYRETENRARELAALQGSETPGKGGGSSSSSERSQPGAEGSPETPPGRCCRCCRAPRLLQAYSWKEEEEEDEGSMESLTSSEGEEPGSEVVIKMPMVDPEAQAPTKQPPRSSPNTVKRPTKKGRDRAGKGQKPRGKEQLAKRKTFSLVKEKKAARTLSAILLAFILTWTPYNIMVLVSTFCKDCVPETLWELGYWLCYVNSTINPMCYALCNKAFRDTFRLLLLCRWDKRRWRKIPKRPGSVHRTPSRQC
How it was run: (§1)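 CHO cells expressing M1 or M4, loaded with Fluo-3 AM or Calcium 3 dye with 1 mM probenecid, 0.5% DMSO final. Agonist mode: compound added directly; antagonist mode: 15 min pre-incubation (or co-application) before carbachol at EC80. Fluorescence recorded 60 s on FLIPR.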

[2] = target: T2, M4 muscarinic receptor (Homo sapiens, UniProt P08173); assay: Functional mobilization of intracellular calcium (FLIPR), M4-CHO cells; format: cell-based; conditions: for Emax: 100% efficacy is the maximum response obtained using Carbachol as a control; for M4 Activity: M4-CHO cells, FLIPR calcium mobilization
T2 construct: expressed in transfected cells; host or cells: CHO (M4-CHO)
T2 sequence (P08173 1-479): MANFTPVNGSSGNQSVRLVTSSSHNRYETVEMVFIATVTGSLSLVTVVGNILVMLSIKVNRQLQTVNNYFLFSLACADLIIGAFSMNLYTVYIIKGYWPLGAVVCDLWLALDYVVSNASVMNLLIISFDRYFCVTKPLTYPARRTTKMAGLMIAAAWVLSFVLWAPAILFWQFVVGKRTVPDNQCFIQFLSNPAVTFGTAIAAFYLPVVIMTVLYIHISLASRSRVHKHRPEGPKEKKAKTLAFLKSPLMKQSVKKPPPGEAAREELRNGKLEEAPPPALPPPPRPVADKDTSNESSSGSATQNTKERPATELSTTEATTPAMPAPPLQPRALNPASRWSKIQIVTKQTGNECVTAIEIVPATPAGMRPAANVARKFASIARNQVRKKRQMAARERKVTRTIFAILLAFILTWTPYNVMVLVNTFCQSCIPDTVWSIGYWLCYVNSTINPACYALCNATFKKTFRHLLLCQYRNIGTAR
How it was run: as §1

| SMILES | Emax [1] | M1 Activity [1] | Emax [2] | M4 Activity [2] |
| --- | --- | --- | --- | --- |
| COc1ccc(CN2CCC3(CC2)CN(C(C)=O)Cc2ccccc23)cc1F [compound 107] | < 25% | + (activity was measured to be greater than 5.0 μM) | < 25% | + (activity was measured to be greater than 5.0 μM) |
| O=C1NC2(CCN(CC3CCOC3)CC2)c2ccccc21 (stereo not shown) [compound 352] | < 25% | + (activity was measured to be greater than 5.0 μM) | < 25% | + (activity was measured to be greater than 5.0 μM) |
| CCOC(=O)N1CCC(CN2CCC3(CC2)CN(S(=O)(=O)c2ccc(F)cc2)Cc2ccccc23)CC1 [compound 345] | 25 to 100% | +++ (activity was measured to be less than 1.0 μM) | 25 to 100% | +++ (activity was measured to be less than 1.0 μM) |
| CC(=O)N1Cc2ccccc2C2(CCN(Cc3ccc4c(c3)CCO4)CC2)C1 [compound 116] | < 25% | + (activity was measured to be greater than 5.0 μM) | < 25% | + (activity was measured to be greater than 5.0 μM) |
| CCOC(=O)N1CCC(N2CCC3(CC2)CN(C(=O)Nc2c(C)noc2C)Cc2ccccc23)CC1 [compound 84] | 25 to 100% | +++ (activity was measured to be less than 1.0 μM) | < 25% | +++ (activity was measured to be less than 1.0 μM) |
| CCOC(=O)N1CCC(N2CCC3(CC2)CN(C(=O)OC2CCC2)Cc2ccccc23)CC1 [compound 202] | 25 to 100% | +++ (activity was measured to be less than 1.0 μM) | 25 to 100% | +++ (activity was measured to be less than 1.0 μM) |
| COC(=O)c1ccccc1CN1CCC2(CC1)CN(C(C)=O)Cc1ccccc12 [compound 118] | < 25% | + (activity was measured to be greater than 5.0 μM) | < 25% | + (activity was measured to be greater than 5.0 μM) |
| CCOC(=O)N1CCC(CN2CCC3(CC2)CN(C(=O)c2cccs2)Cc2ccccc23)CC1 [compound 124] | 25 to 100% | +++ (activity was measured to be less than 1.0 μM) | 25 to 100% | +++ (activity was measured to be less than 1.0 μM) |
| CCOC(=O)N1CCC(CN2CCC3(CC2)CN(C(C)=O)Cc2ccccc23)CC1 [compound 198, Ethyl 4-((2-acetyl-2,3-dihydro-1H-spiro[isoquinoline-4,4′-piperidine]-1′-yl)methyl)piperidine-1-carboxylate hydrochloride] | 25 to 100% | +++ (activity was measured to be less than 1.0 μM) | 25 to 100% | +++ (activity was measured to be less than 1.0 μM) |
| CC(=O)N1Cc2ccccc2C2(CCN(Cc3ccc(F)cc3F)CC2)C1 [compound 312] | < 25% | + (activity was measured to be greater than 5.0 μM) | < 25% | + (activity was measured to be greater than 5.0 μM) |
| CC(=O)N1Cc2ccccc2C2(CCN(Cc3ccccc3O)CC2)C1 [compound 297] | < 25% | + (activity was measured to be greater than 5.0 μM) | < 25% | + (activity was measured to be greater than 5.0 μM) |
| CCOC(=O)N1CCC(CN2CCC3(CC2)CN(C(=O)OC2CCC2)Cc2ccccc23)CC1 [compound 315] | 25 to 100% | +++ (activity was measured to be less than 1.0 μM) | 25 to 100% | +++ (activity was measured to be less than 1.0 μM) |
| CCOC(=O)N1CCC(N2CCC3(CC2)CN(C2CCCCC2C)Cc2ccccc23)CC1 (stereo not shown) [compound 123] | 25 to 100% | +++ (activity was measured to be less than 1.0 μM) | 25 to 100% | +++ (activity was measured to be less than 1.0 μM) |
| CC(=O)CN1CCC2(CC1)CN(C(C)=O)Cc1ccccc12 [compound 78] | 25 to 100% | + (activity was measured to be greater than 5.0 μM) | 25 to 100% | + (activity was measured to be greater than 5.0 μM) |
| CCOC(=O)N1C2CCC1CC(N1CCC3(CC1)CN(C(=O)c1ccno1)Cc1ccccc13)C2 (stereo not shown) [compound 318] | 25 to 100% | +++ (activity was measured to be less than 1.0 μM) | 25 to 100% | +++ (activity was measured to be less than 1.0 μM) |
| O=C(c1ccccc1)N1CCC(N2CCC3(CC2)c2ccccc2C(=O)N3Cc2ccccc2)CC1 [compound 42] | < 25% | + (activity was measured to be greater than 5.0 μM) | < 25% | + (activity was measured to be greater than 5.0 μM) |
| CC(=O)N1Cc2ccccc2C2(CCN(C3CCN(C(=O)O[C@@H]4CCOC4)CC3)CC2)C1 [compound 32] | 25 to 100% | +++ (activity was measured to be less than 1.0 μM) | 25 to 100% | +++ (activity was measured to be less than 1.0 μM) |
| CCC(=O)CN1CCC2(CC1)CN(C(C)=O)Cc1ccccc12 [compound 187] | < 25% | + (activity was measured to be greater than 5.0 μM) | < 25% | + (activity was measured to be greater than 5.0 μM) |
| CC(C)OC(=O)N1C2CCC1CC(N1CCC3(CC1)CN(C(=O)N(C)C)Cc1ccccc13)C2 (stereo not shown) [compound 317] | 25 to 100% | +++ (activity was measured to be less than 1.0 μM) | 25 to 100% | +++ (activity was measured to be less than 1.0 μM) |
| CCOC(=O)N1C2CCC1CC(N1CCC3(CC1)CN(C(=O)c1cnoc1C)Cc1ccccc13)C2 (stereo not shown) [compound 213] | 25 to 100% | +++ (activity was measured to be less than 1.0 μM) | 25 to 100% | +++ (activity was measured to be less than 1.0 μM) |
| COC(=O)N1CCC(N2CCC3(CC2)CN(C(C)=O)Cc2ccccc23)CC1 [compound 133] | 25 to 100% | +++ (activity was measured to be less than 1.0 μM) | 25 to 100% | +++ (activity was measured to be less than 1.0 μM) |
| CCCOC(=O)N1Cc2ccccc2C2(CCN(C3CCN(C(=O)OCC)CC3)CC2)C1 [compound 254] | 25 to 100% | +++ (activity was measured to be less than 1.0 μM) | 25 to 100% | +++ (activity was measured to be less than 1.0 μM) |
| Cc1ccc2c(c1)C1(CCN(C3CCOCC3)CC1)OC2=O [compound 180] | 25 to 100% | + (activity was measured to be greater than 5.0 μM) | 25 to 100% | + (activity was measured to be greater than 5.0 μM) |
| CCOC(=O)N1CCC(N2CCC3(CC2)CN(C(=O)c2cnon2)Cc2ccccc23)CC1 [compound 225] | 25 to 100% | +++ (activity was measured to be less than 1.0 μM) | 25 to 100% | +++ (activity was measured to be less than 1.0 μM) |
| CCCCOC(=O)N1Cc2ccccc2C2(CCN(C3CCN(C(=O)OCC)CC3)CC2)C1 [compound 56] | 25 to 100% | +++ (activity was measured to be less than 1.0 μM) | 25 to 100% | +++ (activity was measured to be less than 1.0 μM) |
| CC(=O)N1Cc2ccccc2C2(CCN(Cc3ccc(C(C)O)cc3)CC2)C1 (stereo not shown) [compound 335] | < 25% | + (activity was measured to be greater than 5.0 μM) | < 25% | + (activity was measured to be greater than 5.0 μM) |
| CC(=O)N1Cc2ccccc2C2(CCN(Cc3cc4ccccc4o3)CC2)C1 [compound 217] | < 25% | + (activity was measured to be greater than 5.0 μM) | < 25% | + (activity was measured to be greater than 5.0 μM) |
| CC(C)OC(=O)N1C2CCC1CC(N1CCC3(CC1)CN(S(=O)(=O)N(C)C)Cc1ccccc13)C2 (stereo not shown) [compound 241] | 25 to 100% | +++ (activity was measured to be less than 1.0 μM) | 25 to 100% | +++ (activity was measured to be less than 1.0 μM) |
